Experimental data: PubChem BioAssay (NCI)
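How tested: cells in 96-well plates exposed to compound for 48 hours at five concentrations. TGI: concentration producing complete growth inhibition.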

What was measured:
Assay in all cases: DTP human tumour cell line panel, 48 h
786-0 renal = system: 786-0 renal
A498 renal = system: A498 renal
A549 NSCLC = system: A549 NSCLC
ACHN renal = system: ACHN renal
CAKI-1 renal = system: CAKI-1 renal
COLO 205 colon = system: COLO 205 colon
DMS 114 small cell lung = system: DMS 114 small cell lung
DMS 273 small cell lung = system: DMS 273 small cell lung
EKVX NSCLC = system: EKVX NSCLC
HCT-116 colon = system: HCT-116 colon
HCT-15 colon = system: HCT-15 colon
HL-60(TB) leukemia = system: HL-60(TB) leukemia
HOP-92 NSCLC = system: HOP-92 NSCLC
HT29 colon = system: HT29 colon
IGROV1 ovarian = system: IGROV1 ovarian
K-562 leukemia = system: K-562 leukemia
KM20L2 colon = system: KM20L2 colon
LOX IMVI melanoma = system: LOX IMVI melanoma
LXFL 529 NSCLC = system: LXFL 529 NSCLC
M14 melanoma = system: M14 melanoma
M19-MEL melanoma = system: M19-MEL melanoma
MALME-3M melanoma = system: MALME-3M melanoma
MOLT-4 leukemia = system: MOLT-4 leukemia
NCI-H226 lung = system: NCI-H226 lung
NCI-H23 lung = system: NCI-H23 lung
NCI-H460 lung = system: NCI-H460 lung
NCI-H522 lung = system: NCI-H522 lung
OVCAR-3 ovarian = system: OVCAR-3 ovarian
OVCAR-4 ovarian = system: OVCAR-4 ovarian
OVCAR-5 ovarian = system: OVCAR-5 ovarian
OVCAR-8 ovarian = system: OVCAR-8 ovarian
RPMI-8226 leukemia = system: RPMI-8226 leukemia
RXF 393 renal = system: RXF 393 renal
RXF-631 renal = system: RXF-631 renal
SF-268 CNS = system: SF-268 CNS
SF-295 CNS = system: SF-295 CNS
SF-539 CNS = system: SF-539 CNS
SK-MEL-2 melanoma = system: SK-MEL-2 melanoma
SK-MEL-28 melanoma = system: SK-MEL-28 melanoma
SK-MEL-5 melanoma = system: SK-MEL-5 melanoma
SK-OV-3 ovarian = system: SK-OV-3 ovarian
SN12C renal = system: SN12C renal
SNB-19 CNS = system: SNB-19 CNS
SNB-75 CNS = system: SNB-75 CNS
SNB-78 CNS = system: SNB-78 CNS
SW-620 colon = system: SW-620 colon
TK-10 renal = system: TK-10 renal
UACC-257 melanoma = system: UACC-257 melanoma
UACC-62 melanoma = system: UACC-62 melanoma
UO-31 renal = system: UO-31 renal
XF 498 CNS = system: XF 498 CNS
CCRF-CEM leukemia = system: CCRF-CEM leukemia
DLD-1 colon = system: DLD-1 colon
HCC-2998 colon = system: HCC-2998 colon
HOP-62 NSCLC = system: HOP-62 NSCLC
U251 CNS = system: U251 CNS

With `O=C(CC1(O)C(=O)Nc2c(Cl)cc(Cl)cc21)c1ccccc1` (stereo unspecified) the TGI (786-0 renal) was > 100 µM, the TGI (A498 renal) was > 100 µM and the TGI (A549 NSCLC) was > 100 µM. For the same compound, the TGI (ACHN renal) was > 100 µM, the TGI (CAKI-1 renal) was > 100 µM and the TGI (COLO 205 colon) was > 100 µM. For the same compound, the TGI (DMS 114 small cell lung) was > 100 µM, the TGI (DMS 273 small cell lung) was > 100 µM and the TGI (EKVX NSCLC) was > 100 µM. For the same compound, the TGI (HCT-116 colon) was > 100 µM, the TGI (HCT-15 colon) was > 100 µM and the TGI (HL-60(TB) leukemia) was > 100 µM. The TGI (HOP-92 NSCLC) was > 100 µM, the TGI (HT29 colon) was > 100 µM and the TGI (IGROV1 ovarian) was > 100 µM. For the same compound, the TGI (K-562 leukemia) was > 100 µM, the TGI (KM20L2 colon) was > 100 µM and the TGI (LOX IMVI melanoma) was > 100 µM. The TGI (LXFL 529 NSCLC) was > 100 µM, the TGI (M14 melanoma) was > 100 µM and the TGI (M19-MEL melanoma) was > 100 µM. The TGI (MALME-3M melanoma) was > 100 µM, the TGI (MOLT-4 leukemia) was > 100 µM and the TGI (NCI-H226 lung) was > 100 µM. The TGI (NCI-H23 lung) was > 100 µM, the TGI (NCI-H460 lung) was > 100 µM and the TGI (NCI-H522 lung) was > 100 µM. For the same compound, the TGI (OVCAR-3 ovarian) was > 100 µM, the TGI (OVCAR-4 ovarian) was > 100 µM and the TGI (OVCAR-5 ovarian) was > 100 µM. The TGI (OVCAR-8 ovarian) was > 100 µM, the TGI (RPMI-8226 leukemia) was > 100 µM and the TGI (RXF 393 renal) was > 100 µM. For the same compound, the TGI (RXF-631 renal) was > 100 µM, the TGI (SF-268 CNS) was > 100 µM and the TGI (SF-295 CNS) was > 100 µM. The TGI (SF-539 CNS) was > 100 µM, the TGI (SK-MEL-2 melanoma) was > 100 µM and the TGI (SK-MEL-28 melanoma) was > 100 µM. For the same compound, the TGI (SK-MEL-5 melanoma) was > 100 µM, the TGI (SK-OV-3 ovarian) was > 100 µM and the TGI (SN12C renal) was > 100 µM. For the same compound, the TGI (SNB-19 CNS) was > 100 µM, the TGI (SNB-75 CNS) was > 100 µM and the TGI (SNB-78 CNS) was > 100 µM. The TGI (SW-620 colon) was > 100 µM, the TGI (TK-10 renal) was > 100 µM and the TGI (UACC-257 melanoma) was > 100 µM. The TGI (UACC-62 melanoma) was > 100 µM, the TGI (UO-31 renal) was > 100 µM and the TGI (XF 498 CNS) was > 100 µM.
With `COc1ccc(/C=C/c2cc(OC)c(OC(C)=O)c(OC)c2)cc1` the TGI (786-0 renal) was > 100 µM, the TGI (A549 NSCLC) was > 100 µM and the TGI (ACHN renal) was > 100 µM. The TGI (CCRF-CEM leukemia) was > 100 µM, the TGI (COLO 205 colon) was > 100 µM and the TGI (DLD-1 colon) was > 100 µM. The TGI (DMS 114 small cell lung) was 84.7 µM, the TGI (DMS 273 small cell lung) was > 100 µM and the TGI (EKVX NSCLC) was > 100 µM. The TGI (HCC-2998 colon) was 39 µM, the TGI (HCT-116 colon) was > 100 µM and the TGI (HCT-15 colon) was 80.6 µM. The TGI (HOP-62 NSCLC) was 73.7 µM, the TGI (HOP-92 NSCLC) was 65.1 µM and the TGI (HT29 colon) was > 100 µM. For the same compound, the TGI (IGROV1 ovarian) was > 100 µM, the TGI (KM20L2 colon) was > 100 µM and the TGI (LXFL 529 NSCLC) was > 100 µM. The TGI (M14 melanoma) was > 100 µM, the TGI (M19-MEL melanoma) was > 100 µM and the TGI (MALME-3M melanoma) was 88.1 µM. The TGI (MOLT-4 leukemia) was 95.9 µM, the TGI (NCI-H226 lung) was 96.6 µM and the TGI (NCI-H23 lung) was 61.4 µM. The TGI (NCI-H460 lung) was 60.4 µM, the TGI (NCI-H522 lung) was 46.1 µM and the TGI (OVCAR-3 ovarian) was > 100 µM. The TGI (OVCAR-4 ovarian) was > 100 µM, the TGI (OVCAR-5 ovarian) was 59 µM and the TGI (OVCAR-8 ovarian) was > 100 µM. The TGI (RPMI-8226 leukemia) was > 100 µM, the TGI (RXF-631 renal) was > 100 µM and the TGI (SF-268 CNS) was > 100 µM. The TGI (SK-MEL-2 melanoma) was > 100 µM, the TGI (SK-MEL-28 melanoma) was 25.3 µM and the TGI (SK-OV-3 ovarian) was > 100 µM. For the same compound, the TGI (SN12C renal) was 75.2 µM, the TGI (SNB-19 CNS) was > 100 µM and the TGI (SNB-75 CNS) was 60.5 µM. For the same compound, the TGI (SNB-78 CNS) was 76.1 µM, the TGI (U251 CNS) was 38.4 µM and the TGI (UACC-257 melanoma) was 66.9 µM. For the same compound, the TGI (UACC-62 melanoma) was 42.8 µM, the TGI (UO-31 renal) was 49.3 µM and the TGI (XF 498 CNS) was > 100 µM.
